Reference: US6737425B1, “N,N-substituted cyclic amine derivatives” (Eisai Co., Ltd., priority 1998, dated 2004)
Where a name gives a salt, the structure may show the parent alone.

Key:
[1] = tested on: voltage-dependent calcium channels (cerebral cortex synaptosome); assay: Measurement of voltage-dependent calcium channel activity by the use of a fluorescent pigment (fura 2); type: cell-based; settings: rat cerebral cortex synaptosome, fura 2, KCl stimulation, compound incubated 10 minutes
Description: Measurement of Voltage-dependent Calcium Channel Activity by the use of a Fluorescent Pigment (fura 2)
Cerebral cortexes were removed from cut rat brains and disrupted roughly with scissors. These were introduced into a homogenizer, homogenized in 0.3 M saccharose and centrifuged at 4° C. (1,500 g×10 min). The resulting supernatant was further centrifuged at 4° C. (10,000 g×20 min). The resulting precipitates were suspended in 0.3 M saccharose. The suspension was layered on 0.8 M saccharose and centrifuged (10,000 g×30 min.).
4 μM fura 2/AM (Dojin Ltd.) was suspended in solution A to prepare a loading solution. To the synaptosome solution prepared in the method described above was added an equal volume of the loading solution, and the mixture was incubated for 40 minutes at room temperature.
As comparative and control compound, verapamil hydrochloride was used.

[2] = tested on: glutamic acid release from rat cerebral cortex slices; assay: Inhibitory activity on glutamic acid release (cerebral cortex slices, high-conc. KCl); type: cell-based; settings: glutamic acid release induced with 50 mM KCl, HPLC
Description: Inhibitory Activity on Glutamic Acid Release
Cerebral cortexes were isolated from SD strain male rats (8-week-old) and used to prepare 300 μm×300 μm slices by use of a slice chopper. The prepared slices were incubated at 37° C. for 30 minutes in solution C (120 mM NaCl, 4 mM KCl, 10 mM MgSO4, 16 mM NaHCO3, 10 mM glucose, 1 mM NaH2PO4, 10 mM HEPES-NaOH pH 7.4) in the presence of 95% O2/5% CO2. Thereafter, solution C was exchanged with fresh one, followed by further incubation for 30 minutes.
The cerebral cortex slices were incubated in a 24-wells plate for cell culture according to a multi-well method (Brain Res., 402, 255-263, 1987), and the release of glutamic acid was induced with 50 mM KCl. Solution D (120 mM NaCl, 4 mM KCl, 1.2 mM CaCl2, 1 mM MgSO4, 16 mM NaHCO3, 10 mM glucose, 1 mM NaH2PO4, 10 mM HEPES-NaOH pH 7.4) was aerated with 95% O2/5% CO2 and kept at 37° C. and used in this experiment. 50 mM KCl containing the same total amount of K^+ and Na^+ was prepared. Slices corresponding to 1 to 2 mg protein were placed on an upper cup provided with a mesh at the bottom, and 1.3 ml solution C or 50 mM KCl solution was introduced into a lower well, and the upper cup was transferred to a new well. 20 minutes before and 5 minutes after reaction was intiated, the test compound was added to solution D or 50 mM KCl.
Glutamic acid was quantified by HPLC using fluorescent etor (Ex. 330 nm Em. […]). The eluting solvent used was prepared by diluting 150 ml sodium citrate buffer for automatic amino acid analysis (Wako Pure Chemical Industries) 10-fold with distilled water, then adding MgCl2 thereto at the final concentration of 50 mM, and further diluting it twice with acetonitrile. The flow rate was 2.0 ml/min. The column used was Asahipak (ES-502N Denko, K. K.). The glutamic acid was converted into a derivative by addition, to 50 μl sample, of 50 μl deriving agent (10 mg o-phthalaldehyde/500 μl MeOH, 10 μl b-mercaptopropionic acid, 0.15 M sodium borate buffer pH 9.5, 100 μl) followed by stirring (Neuroscience Lett., 96, 202-206, 1989).

| SMILES | IC50 [1] [µM] | IC50 ([2]; Rattus norvegicus) [nM] | IC50 ([1]; Hydrochloride) [µM] | IC50 ([2]; Hydrochloride) [nM] |
| --- | --- | --- | --- | --- |
| CC(C)C(C#N)(CCCN1CCN(CCOc2ccc(F)cc2)CC1)c1ccccc1F (centres unmarked) [Example 22, 1-{[4-Cyano-5-methyl-4-(2-fluorophenyl)hexyl]}-4-[2-(4-fluorophenoxy)ethyl]piperazine] | 5.4 | 4100 | – | – |
| CC(C)C(C#N)(CCCN1CCN(CCOc2ccc(F)cc2)CC1)c1ccccc1 (single isomer, unassigned; (+)) [Example 76, (+)-1-[(4-Cyano-5-methyl-4-phenyl)hexyl]-4-[2-(4-fluorophenoxyl)ethyl]piperazine Hydrochloride] | – | – | 5.8 | 3900 |
| CC(C)C(C#N)(CCCN1CCN(CCOc2ccc(F)cc2)CC1)c1cccs1 (centres unmarked) [Example 20, 1-{[4-Cyano-5-methyl-4-(2-thienyl)hexyl]}-4-[2-(4-fluorophenoxy)ethyl]piperazine] | 5.5 | 1900 | – | – |
| N#CC(CCCN1CCN(CCOc2ccc(F)cc2)CC1)(c1ccccc1)C1CCCCC1 (single isomer, unassigned; (-)) [Example 79, (−)-1-[(4-Cyano-4-cyclohexyl-4-phenyl)butyl]-4-[2-(4-fluorophenoxyl)ethyl]piperazine Hydrochloride] | – | 5900 | 3.3 | – |
| CC(C)C(C#N)(CCCN1CCN(CCOc2ccccn2)CC1)c1ccccc1 (centres unmarked) [Example 71, 1-[(4-Cyano-5-methyl-4-phenyl)hexyl]-4-[2-(2-pyridyloxy)ethyl]piperazine] | > 16 | – | – | – |
| COC(=O)c1ccc(C(C#N)(CCCN2CCN(CCOc3ccc(F)cc3)CC2)C(C)C)cc1 (centres unmarked) [Example 12, 1-[4-Cyano-5-methyl-4-(4-carbomethoxyphenyl)hexyl]-4-[2-(4-fluorophenoxy)ethyl]piperazine] | 8.1 | – | – | – |
| CC(C)C(C#N)(CCN1CCN(CCCOc2ccc(F)cc2)CC1)c1ccccc1 (centres unmarked) [Example 5, 1-[(3-Cyano-4-methyl-3-phenyl)pentyl]-4-[3-(4-fluorophenoxy)propyl]piperazine] | 7.7 | – | – | – |
| CC(C)C(C#N)(CCCN1CCN(CCOc2ccc(N(C)C)cc2)CC1)c1ccccc1 (centres unmarked) [Example 43, 1-[(4-Cyano-5-methyl-4-phenyl)hexyl]-4-[2-(4-dimethylaminophenoxy)ethyl]piperazine] | 13 | – | – | – |
| CC(C)C(C#N)(CCCN1CCN(CCOc2ccc(F)cc2)CC1)c1ccc(N(C)C)cc1 (centres unmarked) [Example 19, 1-[4-Cyano-5-methyl-4-(4-dimethylaminophenyl)hexyl]-4-[2-(4-fluorophenoxy)ethyl]piperazine] | 6 | – | – | – |
| CC(C)C(C#N)(CCCN1CCN(CCS(=O)(=O)N(C)c2ccc(F)cc2)CC1)c1ccccc1 (centres unmarked) [Example 68, 1-[(4-Cyano-5-methyl-4-phenyl)hexyl]-4-{2-[N-(4-fluorophenyl)-N-methylsulfamoyl]ethyl}piperazine] | 8.7 | – | – | – |
| CC(C)C(C#N)(CCCN1CCN(CCOc2ccc(F)cc2)CC1)c1ccccc1 (single isomer, unassigned; (-)) [Example 75, hydrochloride] | – | 2900 | 4.5 | – |
| CC(C)C(C#N)(CCCN1CCN(CCOc2ncnc3ccccc23)CC1)c1ccccc1 (centres unmarked) [Example 105, 1-[(4-Cyano-5-methyl-4-phenyl)hexyl]-4-[2-(4-quinazolinyloxy)ethyl]piperazine] | > 16 | – | – | – |
| N#CC(CCCN1CCN(CCOc2ccc(F)cc2)CC1)(c1ccccc1)C1CCCCC1 (single isomer, unassigned; (+)) [Example 80, (+)-1-[(4-Cyano-4-cyclohexyl-4-phenyl)butyl]-4-[2-(4-fluorophenoxyl)ethyl]piperazine Hydrochloride] | – | – | 3.8 | – |

Continued, in another order:

| IC50 [1] [µM] | IC50 ([2]; Rattus norvegicus) [nM] | SMILES | IC50 ([1]; Hydrochloride) [µM] | IC50 ([2]; Hydrochloride) [nM] |
| --- | --- | --- | --- | --- |
| 3.9 | 2400 | CC(C)C(C#N)(CCCN1CCN(CCOc2ccc(F)cc2)CC1)c1ccc(F)cc1 (centres unmarked) [Example 24, 1-{[4-Cyano-5-methyl-4-(4-fluorophenyl)hexyl]}-4-[2-(4-fluorophenoxy)ethyl]piperazine] | – | – |
| 3.2 | 2000 | CC(C)C(C#N)(CCCN1CCN(CCOc2ccc(F)cc2)CC1)c1ccc(Cl)cc1 (centres unmarked) [Example 10, 1-[4-Cyano-5-methyl-4-(4-chlorophenyl)hexyl]-4-[2-(4-fluorophenoxy)ethyl]piperazine] | – | – |
| 3.4 | 4200 | CC(C)C(C#N)(CCCN1CCN(CCOc2ccc(Cl)cc2)CC1)c1ccccc1 (centres unmarked) [Example 36, 1-[(4-Cyano-5-methyl-4-phenyl)hexyl]-4-[2-(4-chlorophenoxy)ethyl]piperazine] | – | – |
| 3.5 | 2400 | Cc1ccc(C(C#N)(CCCN2CCN(CCOc3ccc(F)cc3)CC2)C(C)C)cc1 (centres unmarked) [Example 9, 1-[4-Cyano-5-methyl-4-(4-methylphenyl)hexyl]-4-[2-(4-fluorophenoxy)ethyl]piperazine] | – | – |
| 3.8 | 2900 | CC(C)C(C#N)(CCCN1CCN(CCN(C)c2ccc(F)cc2)CC1)c1ccccc1 (centres unmarked) [Example 52, 1-[(4-Cyano-5-methyl-4-phenyl)hexyl]-4-{2-[N-(4-fluorophenyl)-N-methylamino]ethyl}piperazine] | – | – |
| 4.6 | – | CCCC(C#N)(CCCN1CCN(CCOc2ccc(F)cc2)CC1)c1ccccc1 (centres unmarked) [Example 27, 1-[(4-Cyano-4-phenyl)heptyl]-4-[2-(4-fluorophenoxy)ethyl]piperazine] | – | – |
| 2.1 | – | CC(C)c1ccc(N(C)CCN2CCN(CCCC(C#N)(c3ccccc3)C(C)C)CC2)cc1 (centres unmarked) [Example 91, 1-[(4-Cyano-5-methyl-4-phenyl)hexyl]-4-{2-[N-methyl(4-isopropylanilino)ethyl]}piperazine] | – | – |
| 4.8 | 3800 | COc1ccc(C(C#N)(CCCN2CCN(CCOc3ccc(F)cc3)CC2)C(C)C)cc1 (centres unmarked) [Example 11, 1-[4-Cyano-5-methyl-4-(4-methoxyphenyl)hexyl]-4-[2-(4-fluorophenoxy)ethyl]piperazine] | – | – |
| 4.3 | 2500 | CC(C)C(C#N)(CCCN1CCN(CCOc2ccc(F)cc2)CC1)c1cccc(F)c1 (centres unmarked) [Example 23, 1-[{4-Cyano-5-methyl-4-(3-flourophenyl)hexyl]}-4-[2-(4-fluorophenoxy)ethyl]piperazine] | – | – |
| 3.3 | – | CC(C)C(C#N)(CCCN1CCN(CCOc2cccc(Br)c2)CC1)c1ccccc1 (centres unmarked) [Example 109, 1-[(4-Cyano-5-methyl-4-phenyl)hexyl]-4-[2-(3-bromophenoxy)ethyl]piperazine] | – | – |
